Data on two compounds can be found in patent publication US11192849B2, “Compounds, compositions, and methods for modulating ferroptosis and treating excitotoxic disorders” (THE TRUSTEES OF COLUMBIA UNIVERSITY IN THE CITY OF NEW YORK, priority 2013, dated 2021).

One experiment relates to HT-1080 cells. Nature of the experiment: Inhibition of erastin (10 μM)-induced death in HT-1080 cells (Alamar Blue). In kind it is cell-based, human. Conditions: for EC50: Homo sapiens. An outline of the steps: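 HT-1080 cells (1,000/well) were treated next day with 10 μM erastin plus a compound dilution series for 24 h. Alamar Blue (10% final) was then added for 6 h and fluorescence read at ex/em 530/590.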

In experiment [1] the test system is mouse kidney proximal tubules. In words: Hydroxyquinoline + iron induced cell death in isolated mouse kidney proximal tubules (LDH release). The settings on record: 10 μM hydroxyquinoline and ferrous ammonium sulfate, 60 min. In kind it is cell-based. On the procedure:
Tubule preparation: 8-12 week old C57/BL6 female mice were euthanized with isoflurane. […] The cortices were then dissected and minced on an ice cold tile, then resuspended in additional Solution A for 8-10 min. of digestion at 37° C. followed by enrichment of proximal tubules using centrifugation on self-forming Percoll gradients as previously described for rabbit tubules.
Experimental procedures for isolated tubules: Tubules were suspended at 1.5-2.0 mg tubule protein/ml in a 95% air/5% CO2-gassed medium containing (in mM) 110 NaCl, 2.6 KCl, 25 NaHCO3, 2.4 KH2PO4, 1.25 CaCl2, 1.2 MgCl2, 1.2 MgSO4, 5 glucose, 4 sodium lactate, 0.3 alanine, 5 sodium butyrate, 2 glycine, and 1.0 mg/ml bovine gelatin (75 bloom) (Solution B). After precincubation for 15 min. at 37° C., then were then resuspended in fresh Solution B containing 2 mM heptanoic acid instead of sodium butyrate along with experimental compounds.
In addition, the efficacy of Fer-1, SRS11-92, and selected analogs was tested in a model of iron-induced cell death in freshly isolated mouse kidney proximal tubules that simulates major elements of rhabdomyolysis-induced acute kidney injury (FIG. 15C). Cell death in this model is known to involve oxidative lipid damage (Sogabe, et al., 1996, Park, et al., 2011); it was therefore believed that Fer-1 might be protective. 10 μM each of hydroxyquinoline and ferrous ammonium sulfate (HQ+Fe) were used to induce cell death, which was quantified by monitoring LDH release after 60 min. […] By implication, cell death in these models may involve, at least in part, the induction of lipid peroxidation and perhaps ferroptosis.
(LDH leaks from cells whose membrane has failed.)

Experiment [2] deals with primary pre-oligodendrocytes. In words: PVL model: cystine deprivation of developing oligodendrocytes. Conditions: 100 nM, 24 hrs, Alamar Blue. In kind it is cell-based, rat. On the procedure:
Primary pre-oligodendrocytes cultures were prepared from the forebrains of P2 Sprague Dawley (Charles River Laboratory) rat pups using a differential detachment method. Forebrains free of meninges were dissociated with Hanks' Balanced Salt Solution containing 0.01% trypsin and 10 μg/ml DNase, and triturated with DMEM containing 10% heat-inactivated fetal bovine serum and 100 U/ml penicillin and 100 μg/ml streptomycin. Dissociated cells were plated onto poly-D-lysine-coated 75 cm^2 flasks and fed cells every other day for 10-17 days. On day 10 or 17, following 1 hour pre-shake at 200 rpm 37° C. to remove microglia, the flasks were shaken overnight to separate pre-oligodendrocytes from astrocyte layer. The cell suspension was passed through a 20 μm filter and plated onto uncoated (bacteriological) petri dishes for 1 hour in incubator to remove residual microglia/astrocytes. Cell suspension was plated onto poly-D,L-ornithine-coated plates with DMEM, 1×ITS (Life Technologies), 2 mM L-glutamine, 1 mM sodium pyruvate, 0.5% FBS and 0.05% gentamicin (Sigma), 10 ng/ml PDGF and 10 ng/ml FGF (Peprotech), with full medium change the next day and half medium change every other day. […] Fluorescence was assayed in each well using FluoroCount Plate Reader (Packard), with Packard Plate Reader Version 3.0, and 530 nm excitation, and 590 nm emission filters. […]
On the technique in general: Resazurin is reduced to fluorescent resorufin, in cell work by metabolically active cells.

“Also recorded” adds a separate entry of the source. Where two headings read alike, the source gives them in different places.

For orientation: EC50 means the concentration that produces a half-maximal response. As for `CCOC(=O)c1ccc(NC2CCCCC2)c(N)c1` [SRS8-28 (Fer-1), ethyl 3-amino-4-(cyclohexylamino)benzoate], the EC50 with HT-1080 cells (HT-1080, SI Table 2, analogs with various hydrophobic moieties) was 95 nM; with HT-1080 cells (HT-1080, SI Table 5), 88 nM; with HT-1080 cells (HT-1080, SI Table 8) it was 88 nM; with HT-1080 cells (HT-1080, Table 1 (Example 10), erastin (10 μM)-treated HT-1080 cells), 95 nM. The “prevention of erastin-induced death” value in the experiment on HT-1080 cells (erastin-treated HT-1080 cells) is recorded as “suppressed erastin-induced death”. The “HQ+Fe induced lethality (LDH release)” value in experiment [1] is “prevented lethality; also recorded: protective”. Besides, in experiment [2], the “protection of oligodendrocytes from cystine deprivation” value is listed as “fully protected OLs from cystine deprivation”.
With `CCOC(=O)c1ccc(NC2CCCCC2)c(NCc2ccccc2)c1` [SRS11-92, ethyl 3-(benzylamino)-4-(cyclohexylamino)benzoate], in the experiment with HT-1080 cells (HT-1080, erastin (10 μM)), the “fold more potent than the parent Fer-1” value turned out to be 15 fold. For the same compound, the “potency compared with Fer-1” value in the experiment with HT-1080 cells (HT-1080, erastin (10 μM)) is on record as “more potent than Fer-1”. The EC50 in the experiment on HT-1080 cells (HT-1080, Example 15, erastin (10 μM), HT-1080, read-out: EC50) worked out at 6 nM; in the experiment on HT-1080 cells (HT-1080, SI Table 6, read-out: EC50), 6 nM; with HT-1080 cells (HT-1080, SI Table 7, read-out: EC50), 6 nM. In addition, the “HQ+Fe induced lethality (LDH release)” value in experiment [1] is “prevented lethality”. Also, the “protection of oligodendrocytes from cystine deprivation” value in experiment [2] is reported as “fully protected OLs from cystine deprivation”.
